# Test results as given in ChEMBL document CHEMBL1201862, “PubChem BioAssay data set” (2004).
# Values joined by “and” are separate entries in the source; they are usually repeats but may differ in a detail not shown here. Equal entries are not always repeated. Active and inactive are the calls of the source.
# Experiments:
# [1] = target: Alkaline phosphatase, placental type (Homo sapiens, UniProt P05187); assay: human placental alkaline phosphatase inhibition – biochemical, luminescence, confirmation (AID 1512); type: functional
# [2] = target: T1, Mannose-6-phosphate isomerase (Homo sapiens, UniProt P34949); assay: Confirmation of compounds inhibiting phosphomannose isomerase (PMI) via a fluorescence intensity assay using a high concentration of mannose 6-phosphate. [Related pubchem assays (depositor defined):AID1209, AID1220, AID1545, AID1553, AID1620]
# T1 sequence (P34949 whole entry): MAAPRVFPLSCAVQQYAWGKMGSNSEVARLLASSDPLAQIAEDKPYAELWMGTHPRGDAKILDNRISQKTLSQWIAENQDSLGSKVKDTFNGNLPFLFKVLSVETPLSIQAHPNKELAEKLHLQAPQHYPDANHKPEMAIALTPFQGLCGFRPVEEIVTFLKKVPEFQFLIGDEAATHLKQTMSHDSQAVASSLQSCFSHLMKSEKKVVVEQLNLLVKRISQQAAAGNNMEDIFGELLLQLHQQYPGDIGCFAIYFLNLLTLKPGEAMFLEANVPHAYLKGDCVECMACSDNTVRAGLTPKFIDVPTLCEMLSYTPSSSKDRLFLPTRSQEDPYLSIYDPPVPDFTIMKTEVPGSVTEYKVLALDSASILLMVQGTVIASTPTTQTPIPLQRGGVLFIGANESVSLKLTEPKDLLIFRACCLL
# [3] = target: T1, Mannose-6-phosphate isomerase; assay: phosphomannose isomerase inhibition – biochemical, fluorescence intensity, confirmation (AID 1535)
# [4] = protection from phage-mediated lysis, alamar blue read-out – E. coli UTI89, K1F phage, bacterial capsule biogenesis inhibitors (AID 488966); type: functional
# [5] = tested on: Trypanosoma cruzi; assay: anti-trypanosomal activity in host cells – cell-based, plate reader, dry powder, set 3, dose response (AID 493197); type: functional
# [6] = NIH/3T3 cell viability loss – mouse embryonic fibroblasts, dry powder, set 2, cytotoxicity control, dose response (AID 493247); type: functional, cell-based; settings: Fibroblast
# [7] = target: Potassium voltage-gated channel subfamily KQT member 2 (Rattus norvegicus, UniProt O88943); assay: potentiation of rat KCNQ2 current – cell-based, retigabine-insensitive compounds, dose response (AID 2654); type: functional
# [8] = Trypanosoma cruzi growth suppression in host cells – NIH3T3 host cells, beta-gal luminescence, confirmation (AID 2044); type: functional, cell-based;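 further: intracellular parasites grown in NIH/3T3 mouse fibroblasts as host cells; luminescent beta-galactosidase reporter signal from transgenic T. cruzi replicating inside host cells; inhibitors lower the luminescence signal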
# [9] = tested on: INS1; assay: INS-1E survival protection against cytokine death – cell-based, luminescence, retest, dose response (AID 449756); type: functional; settings: Rattus norvegicus;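 further: cell death triggered by IL-1 beta plus TNF-alpha plus IFN-gamma mixture; protective hits raise ATP signal compared with cytokine alone wells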
# [10] = target: T2, Microphthalmia-associated transcription factor (Homo sapiens, UniProt O75030); assay: reducers of TRPM1 reporter luminescence, concentration series – cell-based, SK-MEL-5, cherry-picked, set 3, MITF inhibitor project, dose response (AID 493073); type: functional;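 further: SK-MEL-5 melanoma cells with luciferase driven by the MITF target TRPM1 promoter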
# T2 sequence (O75030 whole entry): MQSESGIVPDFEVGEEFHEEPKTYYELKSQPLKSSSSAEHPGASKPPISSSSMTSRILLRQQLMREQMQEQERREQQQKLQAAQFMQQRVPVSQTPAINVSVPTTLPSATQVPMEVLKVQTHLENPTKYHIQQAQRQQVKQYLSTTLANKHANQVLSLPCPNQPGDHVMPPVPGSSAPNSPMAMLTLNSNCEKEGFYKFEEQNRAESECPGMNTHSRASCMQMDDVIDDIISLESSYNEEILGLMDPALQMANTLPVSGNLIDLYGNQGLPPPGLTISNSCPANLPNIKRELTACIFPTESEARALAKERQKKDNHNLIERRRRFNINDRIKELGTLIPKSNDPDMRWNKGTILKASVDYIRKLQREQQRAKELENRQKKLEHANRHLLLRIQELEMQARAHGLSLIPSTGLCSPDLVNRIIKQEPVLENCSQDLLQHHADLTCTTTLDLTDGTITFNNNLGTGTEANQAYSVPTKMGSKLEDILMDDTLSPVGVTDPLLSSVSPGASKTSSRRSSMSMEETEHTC
# [11] = target: T3, Kappa-type opioid receptor (Homo sapiens, UniProt P41145); type: functional
# T3 sequence (P41145 whole entry): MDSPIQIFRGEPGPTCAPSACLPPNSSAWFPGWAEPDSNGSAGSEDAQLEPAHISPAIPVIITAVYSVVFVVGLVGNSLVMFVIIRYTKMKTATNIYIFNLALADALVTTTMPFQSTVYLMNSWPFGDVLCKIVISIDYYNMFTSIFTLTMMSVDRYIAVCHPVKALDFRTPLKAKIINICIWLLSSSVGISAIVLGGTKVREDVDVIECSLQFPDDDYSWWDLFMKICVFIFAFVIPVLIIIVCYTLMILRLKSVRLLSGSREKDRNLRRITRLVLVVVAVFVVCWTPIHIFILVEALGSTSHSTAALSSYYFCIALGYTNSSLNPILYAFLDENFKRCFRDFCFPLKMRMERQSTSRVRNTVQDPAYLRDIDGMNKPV
# [12] = cells; type: functional, cell-based
# [13] = NIH3T3 cell viability loss – ATP luminescence, mouse fibroblasts, counter-screen, dose response (AID 2010); type: functional, cell-based;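 further: cells exposed to compound for about 90 hours before reading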
# [14] = tested on: Vero; assay: cells; type: functional; settings: Chlorocebus sabaeus
# [15] = target: T3, Kappa-type opioid receptor; type: functional; remark: listed apart in the source
# [16] = cells; type: functional, cell-based; remark: listed apart in the source
# [17] = target: T4, Beta-galactosidase (Escherichia coli, UniProt Q8VNN2); type: functional
# T4 sequence (Q8VNN2 whole entry): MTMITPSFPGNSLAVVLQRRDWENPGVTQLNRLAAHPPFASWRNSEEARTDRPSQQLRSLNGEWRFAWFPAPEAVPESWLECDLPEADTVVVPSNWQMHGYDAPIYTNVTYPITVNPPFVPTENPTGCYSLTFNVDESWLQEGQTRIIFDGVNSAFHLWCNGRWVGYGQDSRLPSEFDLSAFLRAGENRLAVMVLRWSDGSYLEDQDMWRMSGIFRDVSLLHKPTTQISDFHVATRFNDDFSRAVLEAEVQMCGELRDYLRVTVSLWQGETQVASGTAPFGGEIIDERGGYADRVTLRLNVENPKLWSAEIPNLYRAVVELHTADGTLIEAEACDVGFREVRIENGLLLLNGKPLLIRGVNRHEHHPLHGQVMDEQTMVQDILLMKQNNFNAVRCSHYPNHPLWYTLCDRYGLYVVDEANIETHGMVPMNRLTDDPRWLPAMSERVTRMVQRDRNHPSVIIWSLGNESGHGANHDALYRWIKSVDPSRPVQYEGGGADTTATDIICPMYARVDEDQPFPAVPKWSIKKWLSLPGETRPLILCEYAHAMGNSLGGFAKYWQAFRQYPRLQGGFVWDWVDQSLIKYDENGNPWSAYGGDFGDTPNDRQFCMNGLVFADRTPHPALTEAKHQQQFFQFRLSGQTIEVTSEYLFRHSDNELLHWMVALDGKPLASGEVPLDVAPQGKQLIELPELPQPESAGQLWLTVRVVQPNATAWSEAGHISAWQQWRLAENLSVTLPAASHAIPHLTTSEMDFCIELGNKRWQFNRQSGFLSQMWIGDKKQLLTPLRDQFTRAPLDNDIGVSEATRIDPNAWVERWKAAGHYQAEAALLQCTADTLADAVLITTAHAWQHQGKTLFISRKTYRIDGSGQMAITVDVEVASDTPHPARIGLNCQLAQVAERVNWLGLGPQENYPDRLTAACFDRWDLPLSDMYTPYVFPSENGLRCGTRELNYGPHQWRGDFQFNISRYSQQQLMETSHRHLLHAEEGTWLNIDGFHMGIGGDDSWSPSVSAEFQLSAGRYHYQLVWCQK
# [18] = target: CAAX prenyl protease 2 (Homo sapiens, UniProt Q9Y256); assay: inhibition of Ras-converting CAAX protease Rce1 – biochemical, yeast membranes, quenched-peptide fluorescence, cherry-pick, dose response (AID 588849)
# Chain of CAAX prenyl protease 2 (Homo sapiens, UniProt Q9Y256) (Q9Y256 whole entry): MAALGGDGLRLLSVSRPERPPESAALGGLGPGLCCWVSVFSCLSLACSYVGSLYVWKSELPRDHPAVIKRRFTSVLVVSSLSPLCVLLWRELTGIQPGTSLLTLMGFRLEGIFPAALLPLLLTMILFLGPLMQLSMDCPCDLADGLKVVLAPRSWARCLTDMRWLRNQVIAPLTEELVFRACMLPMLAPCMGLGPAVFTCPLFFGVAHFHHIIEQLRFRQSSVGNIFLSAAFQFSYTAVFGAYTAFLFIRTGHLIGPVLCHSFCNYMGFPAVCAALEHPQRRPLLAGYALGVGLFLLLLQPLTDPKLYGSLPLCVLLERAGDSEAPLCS
# [19] = target: CAAX prenyl protease 2 (Saccharomyces cerevisiae S288c, UniProt Q03530); type: biochemical
# Chain of CAAX prenyl protease 2 (Saccharomyces cerevisiae S288c, UniProt Q03530) (Q03530 whole entry): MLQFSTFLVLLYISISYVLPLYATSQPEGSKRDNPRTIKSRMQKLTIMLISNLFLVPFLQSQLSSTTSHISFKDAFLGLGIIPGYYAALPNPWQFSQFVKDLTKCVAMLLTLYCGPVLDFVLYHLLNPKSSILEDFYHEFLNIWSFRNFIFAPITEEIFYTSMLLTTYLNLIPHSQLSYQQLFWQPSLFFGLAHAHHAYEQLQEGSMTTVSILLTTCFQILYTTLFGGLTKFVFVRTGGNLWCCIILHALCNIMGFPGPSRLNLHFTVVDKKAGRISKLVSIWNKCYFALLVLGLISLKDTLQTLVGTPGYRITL
# [20] = target: Phosphomannomutase 2 (Homo sapiens, UniProt O15305); assay: Counter screen SAR assay for PMM2 inhibitors via a fluorescence intensity assay. [Related pubchem assays (depositor defined):AID1545, AID1574]
# Chain of Phosphomannomutase 2 (O15305 whole entry): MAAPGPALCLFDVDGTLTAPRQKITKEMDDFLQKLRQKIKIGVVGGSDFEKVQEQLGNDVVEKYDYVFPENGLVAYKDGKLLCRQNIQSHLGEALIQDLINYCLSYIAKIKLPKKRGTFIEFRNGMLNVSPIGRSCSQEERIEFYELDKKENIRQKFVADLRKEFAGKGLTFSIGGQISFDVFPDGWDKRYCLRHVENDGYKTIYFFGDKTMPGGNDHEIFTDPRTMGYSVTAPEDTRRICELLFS
# [21] = target: Phosphoethanolamine/phosphocholine phosphatase (Homo sapiens, UniProt Q8TCT1); assay: SAR assay for compounds that inhibit PHOSPHO1. [Related pubchem assays (depositor defined):AID1545, AID1565, AID1574]
# [22] = target: Acyl-homoserine lactone acylase PvdQ (Pseudomonas aeruginosa (strain LESB58), UniProt Q9I194); assay: PvdQ acylase enzyme activity blockers – biochemical, fluorescence, plate reader and imaging, cherry-picks, dose response (AID 493231)
# [23] = target: Sphingosine 1-phosphate receptor 4 (Homo sapiens, UniProt O95977); assay: potency of S1P4 activators – cell-based, fluorescence, synthesized compounds, late-stage follow-up (AID 463107); type: functional
# Chain of Sphingosine 1-phosphate receptor 4 (O95977 whole entry): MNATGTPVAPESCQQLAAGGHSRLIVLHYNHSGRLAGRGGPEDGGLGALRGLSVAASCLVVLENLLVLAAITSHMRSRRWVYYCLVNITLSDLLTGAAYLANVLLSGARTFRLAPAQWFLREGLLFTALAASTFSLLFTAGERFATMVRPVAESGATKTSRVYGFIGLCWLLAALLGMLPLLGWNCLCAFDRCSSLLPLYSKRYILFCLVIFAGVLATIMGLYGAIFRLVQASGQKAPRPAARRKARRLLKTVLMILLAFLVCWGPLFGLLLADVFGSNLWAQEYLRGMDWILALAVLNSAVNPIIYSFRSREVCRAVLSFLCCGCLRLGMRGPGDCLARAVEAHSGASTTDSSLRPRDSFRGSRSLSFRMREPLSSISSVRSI
# [24] = target: T5, Eukaryotic translation initiation factor 2-alpha kinase 3 (Homo sapiens, UniProt Q9NZJ5); assay: Dose response cell-based high-throughput screening assay to measure PERK inhibition. [Related pubchem assays: 1416 ]; type: functional
# T5 sequence (Q9NZJ5 whole entry): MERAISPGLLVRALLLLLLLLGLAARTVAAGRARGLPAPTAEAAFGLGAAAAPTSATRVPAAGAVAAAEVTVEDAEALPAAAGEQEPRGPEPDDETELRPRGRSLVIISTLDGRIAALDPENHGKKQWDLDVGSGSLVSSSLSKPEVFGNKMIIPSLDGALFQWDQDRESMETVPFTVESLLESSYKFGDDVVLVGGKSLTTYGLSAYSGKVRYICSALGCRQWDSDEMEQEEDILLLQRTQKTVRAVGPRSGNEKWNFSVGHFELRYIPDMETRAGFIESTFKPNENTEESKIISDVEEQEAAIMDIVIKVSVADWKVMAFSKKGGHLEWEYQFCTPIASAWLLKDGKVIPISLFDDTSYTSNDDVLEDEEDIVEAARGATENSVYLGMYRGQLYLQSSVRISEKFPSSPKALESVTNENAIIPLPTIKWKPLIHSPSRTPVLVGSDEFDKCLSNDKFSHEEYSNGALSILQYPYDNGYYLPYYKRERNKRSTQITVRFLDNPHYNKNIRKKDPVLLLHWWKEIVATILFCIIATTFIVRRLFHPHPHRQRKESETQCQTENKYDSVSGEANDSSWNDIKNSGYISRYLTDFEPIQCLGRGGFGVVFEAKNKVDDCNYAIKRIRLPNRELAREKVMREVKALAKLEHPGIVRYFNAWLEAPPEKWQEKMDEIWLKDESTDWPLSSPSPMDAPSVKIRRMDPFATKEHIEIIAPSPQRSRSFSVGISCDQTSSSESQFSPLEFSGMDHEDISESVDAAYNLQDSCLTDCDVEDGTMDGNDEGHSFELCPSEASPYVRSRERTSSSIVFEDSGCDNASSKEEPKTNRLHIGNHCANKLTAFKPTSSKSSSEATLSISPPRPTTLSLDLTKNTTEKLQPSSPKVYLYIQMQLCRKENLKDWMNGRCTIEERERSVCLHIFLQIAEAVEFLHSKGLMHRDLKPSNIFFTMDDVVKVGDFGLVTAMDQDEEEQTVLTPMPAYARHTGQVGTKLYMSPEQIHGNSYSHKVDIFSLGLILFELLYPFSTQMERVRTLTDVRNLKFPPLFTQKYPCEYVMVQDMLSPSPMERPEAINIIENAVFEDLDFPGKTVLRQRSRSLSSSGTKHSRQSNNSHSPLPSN
# [25] = target: T5, Eukaryotic translation initiation factor 2-alpha kinase 3; assay: Counterscreen assay for PERK inhibitors: Dose response cell-based high throughput screening assay to measure inhibition of PERK at 6 hours. [Related pubchem assays: 1522, 1416 ]; type: functional
# [26] = Luminescence Cell-Based Dose Retest to Confirm Inhibitors of Cancer Stem Cells. [Related pubchem assays (depositor defined):AID2717, AID2721]; type: functional; settings: Homo sapiens
# [27] = target: T4, Beta-galactosidase; assay: detection-enzyme interference by beta-gal modulators – biochemical, E. coli enzyme, set 3, artefact control for CCR6 antagonist project, dose response (AID 504712); type: functional
# [28] = target: C-C chemokine receptor type 6 (Homo sapiens, UniProt P51684); assay: antagonism of CCR6 beta-arrestin recruitment – cell-based, luminescent beta-arrestin readout, dose response (AID 504728); type: functional
# Chain of C-C chemokine receptor type 6 (P51684 whole entry): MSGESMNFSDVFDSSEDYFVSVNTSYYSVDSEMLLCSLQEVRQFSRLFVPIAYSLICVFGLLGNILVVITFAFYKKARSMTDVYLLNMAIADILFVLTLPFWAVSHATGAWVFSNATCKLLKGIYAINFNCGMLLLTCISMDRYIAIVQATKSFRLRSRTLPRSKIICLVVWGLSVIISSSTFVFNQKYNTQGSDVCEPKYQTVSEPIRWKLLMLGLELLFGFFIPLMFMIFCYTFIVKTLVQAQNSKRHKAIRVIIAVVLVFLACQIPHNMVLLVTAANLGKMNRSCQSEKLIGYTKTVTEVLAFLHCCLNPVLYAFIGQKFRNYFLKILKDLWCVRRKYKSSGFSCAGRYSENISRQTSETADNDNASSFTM
# [29] = target: T6, Dual specificity protein phosphatase 6 (Rattus norvegicus, UniProt Q64346); type: functional
# T6 sequence (Q64346 whole entry): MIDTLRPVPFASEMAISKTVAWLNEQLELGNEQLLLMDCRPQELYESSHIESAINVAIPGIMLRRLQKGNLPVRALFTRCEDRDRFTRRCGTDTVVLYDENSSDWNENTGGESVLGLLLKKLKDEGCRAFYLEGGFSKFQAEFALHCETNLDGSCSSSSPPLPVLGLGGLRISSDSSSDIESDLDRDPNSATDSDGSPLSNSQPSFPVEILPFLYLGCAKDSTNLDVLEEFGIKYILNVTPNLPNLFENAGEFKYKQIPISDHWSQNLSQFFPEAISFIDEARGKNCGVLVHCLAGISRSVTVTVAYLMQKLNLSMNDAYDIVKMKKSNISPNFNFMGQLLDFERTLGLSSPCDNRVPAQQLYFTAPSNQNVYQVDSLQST
# [30] = target: T7, Tyrosine-protein phosphatase non-receptor type 7 (Homo sapiens, UniProt P35236); type: functional
# T7 sequence (P35236 whole entry): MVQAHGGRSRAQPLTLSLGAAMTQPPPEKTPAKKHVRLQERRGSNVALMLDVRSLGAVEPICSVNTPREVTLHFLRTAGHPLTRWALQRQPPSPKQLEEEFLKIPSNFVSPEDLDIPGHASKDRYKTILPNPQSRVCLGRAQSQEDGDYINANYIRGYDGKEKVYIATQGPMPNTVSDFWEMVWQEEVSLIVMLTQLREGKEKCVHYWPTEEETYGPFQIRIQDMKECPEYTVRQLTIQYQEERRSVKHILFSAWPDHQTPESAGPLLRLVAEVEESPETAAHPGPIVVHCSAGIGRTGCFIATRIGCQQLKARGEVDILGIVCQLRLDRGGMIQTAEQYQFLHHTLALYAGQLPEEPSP
# [31] = target: Glyceraldehyde-3-phosphate dehydrogenase (Homo sapiens, UniProt P04406)
# [32] = target: T7, Tyrosine-protein phosphatase non-receptor type 7; assay: redox-active compounds inhibiting HePTP phosphatase – biochemical, fluorescence, mechanism study (AID 2068); type: functional
# [33] = target: T8, Dual specificity protein phosphatase 3 (Homo sapiens, UniProt P51452); assay: MOA VHR1 Fluorescent secondary assay for identification of redox-state modulating compounds. [Related pubchem assays (depositor defined):AID1654, AID1661, AID1878, AID1957]
# T8 sequence (P51452 whole entry): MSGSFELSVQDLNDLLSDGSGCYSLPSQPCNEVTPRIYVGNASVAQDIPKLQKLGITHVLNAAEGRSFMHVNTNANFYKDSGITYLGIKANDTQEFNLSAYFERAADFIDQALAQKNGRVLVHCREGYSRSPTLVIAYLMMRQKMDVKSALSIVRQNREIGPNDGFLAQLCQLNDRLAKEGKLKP
# [34] = target: T8, Dual specificity protein phosphatase 3; assay: SAR VHR1 Fluorescent Assay for In Vitro dose response studies. [Related pubchem assays (depositor defined):AID1654, AID1661, AID1878, AID1992, AID2004, AID2070, AID2085]; type: functional
# [35] = target: T6, Dual specificity protein phosphatase 6
# [36] = target: Cytochrome P450 2D6 (Homo sapiens, UniProt P10635); assay: qHTS Assay for Inhibitors and Substrates of Cytochrome P450 2D6. [Related pubchem assays: 410 ]; type: ADME; settings: read-out: Potency
# Chain of Cytochrome P450 2D6 (P10635 whole entry): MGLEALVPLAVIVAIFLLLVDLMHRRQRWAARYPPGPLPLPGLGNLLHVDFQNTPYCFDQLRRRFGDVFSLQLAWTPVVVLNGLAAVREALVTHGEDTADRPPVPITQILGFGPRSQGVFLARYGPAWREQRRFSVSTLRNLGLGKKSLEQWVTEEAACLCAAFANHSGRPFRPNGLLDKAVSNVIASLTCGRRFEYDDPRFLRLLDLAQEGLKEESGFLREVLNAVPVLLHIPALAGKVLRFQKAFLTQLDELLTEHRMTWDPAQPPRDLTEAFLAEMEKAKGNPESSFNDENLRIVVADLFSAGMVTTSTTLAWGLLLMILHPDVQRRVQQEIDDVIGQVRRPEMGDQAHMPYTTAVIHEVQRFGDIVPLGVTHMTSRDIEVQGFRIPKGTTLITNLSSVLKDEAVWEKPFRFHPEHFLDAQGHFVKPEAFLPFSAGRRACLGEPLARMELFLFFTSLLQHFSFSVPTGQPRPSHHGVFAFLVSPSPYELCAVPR
# [37] = target: Cytochrome P450 2C9 (Homo sapiens, UniProt P11712); settings: Potency
# [38] = viability of PTEN-deleted HCT116 cells – cell-based, HCT116 PTEN knockout, dose response (AID 1047); type: functional;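 further: HCT116 colon tumor cells with PTEN knocked out; cells exposed to compound for 60 hours before readout; potency for loss of cell viability measured by luminescence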
# [39] = target: Large T antigen (Simian virus 40, UniProt P03070); type: functional, Betapolyomavirus macacae;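 further: Confirmatory-stage PubChem screen for compounds that inhibit SV40 T antigen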
# [40] = target: T9, Voltage-gated N-type calcium channel alpha-1B subunit/Amyloid beta A4 precursor protein-binding family A member 1 (Homo sapiens, UniProt Q00975+Q02410); type: protein assay
# [41] = target: T9, Voltage-gated N-type calcium channel alpha-1B subunit/Amyloid beta A4 precursor protein-binding family A member 1; type: protein assay; remark: listed apart in the source
# [42] = viability of HCT116 lacking mutant beta-catenin – cell-based, human colon tumor, dose response (AID 1045); type: functional;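 further: HCT116 colon tumor cells with beta catenin knocked out; cells exposed to compound for 60 hours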
# [43] = target: Glucose-6-phosphate 1-dehydrogenase (Homo sapiens, UniProt P11413); assay: inhibition of Homo sapiens G6PD, dose series – biochemical, fluorescence, selectivity assay for P. falciparum G6PD inhibitor project, dose response (AID 504792); type: functional
# [44] = target: DNA dC->dU-editing enzyme APOBEC-3G (Homo sapiens, UniProt Q9HC16); assay: Dose Response confirmation of small molecule APOBEC3G DNA Deaminase Inhibitors via a fluorescence-based single-stranded DNA deaminase assay. [Related pubchem assays (depositor defined):AID493012, AID493028]; type: functional
smiles,measurement,setting,value
CCCCN1C(=O)/C(=N\Nc2ccccc2O)c2ccccc21,IC50,[1],> 100 µM (inactive)
same,IC50,[2],> 100 µM (inactive)
same,IC50,[3],> 100 µM (inactive)
Cc1nc(NC(=O)c2ccco2)sc1C(=O)Nc1ccc(Br)cc1,IC50,[4],> 75 µM (active)
O=C(N/N=C/c1ccc([N+](=O)[O-])o1)c1ccccn1,AC50,[5],1.47 µM (active)
same,AC50,[6],28 µM (active)
Cc1cccc(NC(=O)Nc2cccnc2)c1C,EC50,[7],16 µM (active)
C/C(=N\NC(=O)Cc1ccc(Cl)cc1)c1ccccn1,EC50,[8],0.635 µM (active)
same,AC50,[9],1.05 µM (active)
same,AC50,[10],4.22 µM (active)
same,IC50,[11],5.02 µM (active)
same,EC50,[12],57.6 µM (active)
same,EC50,[13],< 6 µM (inconclusive)
same,CC50,[14],2.29 µM (active)
same,IC50,[15],> 32 µM
same,EC50,[16],54.9 µM (active)
same,EC50,[17],> 31.5 µM (inactive)
Cc1cc(C)nc(SCc2cn3c(C)cc(C)nc3n2)n1,AC50,[18],35.2 µM (active)
same,AC50,[19],35.7 µM (active)
Cc1c(Cl)cccc1-n1sc2cc(F)ccc2c1=O,IC50,[20],8.74 µM (active)
same,IC50,[21],1.53 µM (inactive)
same,IC50,[3],28.6 µM (active)
CCNC(=O)COc1ccc2ccccc2c1,AC50,[22],11.7 µM (active)
Cc1ccc(OCCOc2ccc(C)nc2[N+](=O)[O-])c([N+](=O)[O-])n1,EC50,[23],> 50 µM (inactive)
Cc1cc2c(NC(=O)Nc3ccc(F)cc3)cccc2nn1,EC50,[24],> 55.7 µM (not active)
same,EC50,[25],> 55.7 µM (not active)
C=C(CC[C@@H](O)C(C)(C)O)[C@H]1CC[C@]2(C)[C@@H]1CC[C@@H]1[C@@]3(C)CC[C@H](O)C(C)(C)C3CC[C@]12C (stereo not given in full),AC50,[26],0.561 µM (active)
same,IC50,[27],> 66.6 µM (inactive)
same,IC50,[28],> 66.6 µM (inactive)
O=c1/c(=C/c2ccc(-c3ccccc3[N+](=O)[O-])o2)sc2nc3cc(Br)cnc3n12,IC50,[29],55.5 µM (active)
same,IC50,[30],43.9 µM (active)
same,IC50,[31],> 100 µM (not active)
same,IC50,[32],4.13 µM (active)
same,IC50,[33],5.53 µM (active)
same,IC50,[34],12.1 µM (active)
same,IC50,[35],49 µM (active)
COC(=O)[C@@H]1[C@H]2C[C@H]3c4[nH]c5cc(OC)ccc5c4CCN3C[C@@H]2C[C@@H](OC(=O)c2cc(OC)c(OC)c(OC)c2)[C@@H]1OC,AC50,[36],39.8 µM (inconclusive) and 12.6 µM (inconclusive)
same,AC50,[37],15.8 µM (inconclusive)
Cc1cc(C)c2c(=O)n(CC(=O)N3CCC(N4CCCCC4)CC3)sc2n1,EC50,[38],22.6 µM (active)
same,IC50,[39],28.1 µM (active)
same,IC50,[40],16.2 µM (active)
same,IC50,[41],> 50 µM (inactive)
same,EC50,[42],18.6 µM (active)
same,IC50,[43],37 µM (inactive)
same,IC50,[44],9.83 µM (active)
